According to patent publication US11493517B2, “Eukaryotic translation initiation factors (EIFS) as novel biomarkers in head and neck squamous cell carcinoma (HNSCC)” (Otto-von-Guericke-Universität Magdeburg, priority 2020, dated 2022):
Read-outs that look alike come from different tables or passages of the source.

How the values were obtained:
[1] = tested on: moderately differentiated laryngeal cancer cell lines (SNU-899, SNU-1066, SNU-1214); assay: MTT cell viability assay in cell culture; type: cell-based
Protocol: MTT Assay in Cell Culture Cell viability assays were carried out with 3 moderately differentiated laryngeal cancer cell lines (SNU-899, SNU-1066, SNU-1214}. MTT reagent stock solution was prepared by dissolving 5 mg crystal in 1 ml PBS and filter sterilization. The cell culture medium was aspirated and replaced by 100 μl fresh medium and 10 μl MTT stock solution per well. The plates were incubated at 37° C. for two hours. The supernatant was removed and 100 μl DMSO was added to each well. After 15-minute incubation at room temperature in a orbital shaker the absorption at […] was detected. All measurements were performed three times using GloMax@-Multi+Microplate Multimode Reader (Promega, Germany}. All experiments were performed three times with three repetitions.

[2] = tested on: 3D-organoids of HNSCC derived from patient populations; assay: Patient derived 3D-organoids chemosensitivity testing (CellTiter-Glo luminescence cell viability assay); type: cell-based; settings: for IC50: Homo sapiens, patient derived HNSCC 3D-organoids, 72 h incubation
Protocol: Patient Derived 3D-Organoids (PD30} and Chemosensitivity Testing Tumor samples from patients, who have undergone resection in the ENT clinic of Otto-von-Guericke University in Magdeburg, were incubated overnight in the RPM medium containing penicillin, streptomycin and amphotericin. On the following day, the tissue samples were crushed, passed through a sieve set to produce a size fraction of between […], which were then incubated on 24-well plates at 37° C. The PD30s were incubated with Salubrinal in a 384-well culture plate for 72 h (i.e. the double population doubling time}. Thereafter, the CellTiter-Glo® luminescence cell viability assay was performed. The reagent mixture was assembled according to the manufacturer's instructions. All experiments were performed three times with three repetitions

O=C(/C=C/c1ccccc1)NC(NC(=S)Nc1cccc2cccnc12)C(Cl)(Cl)Cl (centres unmarked) [Salubrinal]
cytotoxicity at 50 µM ([1]; effect dependent on the cell line and on the dosage, highest efficacy at 50 μM after 72 hours, read-out: reduction of the viability of the cells): 20 to 40%
effect on cell viability (FIG. 4) ([1]; in words): reduction in cell viability
IC50 ([2]; read-out: IC50 range across samples, reduction of cell viability, range over samples): 16 to 158 µM
IC50 ([2]; read-out: average IC50, reduction of cell viability, average over samples): 56 µM
effect on cell viability in 3D-cell culture (FIG. 5) ([2]; in words): reduction of cell viability
